Laboratory results reported in patent publication US20040034006A1, “Method of inactivating viral particles in a blood product” (priority 2000, published 2004).
Values joined by “and” are separate entries in the source; they are usually repeats but may differ in a detail not shown here. Equal entries are not always repeated.

Experiments:
[1] = system: P. aeruginosa; assay: photodynamic inactivation of bacteria with varying amounts of light; assay type: cell-based; details: 25 uM; dependent on amount of light (kJ/m^2); drops from 100%; FIG. 5
[2] = system: S. aureus; assay: as above; assay type: cell-based; details: 25 uM; dependent on amount of light (kJ/m^2); drops from 100%; FIG. 5
[3] = system: red blood cells; assay: in vivo survival of 51Cr-labeled RBC photodynamically treated and re-infused; details: one value per monkey (BB26, CO33)

SMILES: C[n+]1ccc(-c2c3nc(c(-c4cc[n+](C)cc4)c4ccc([nH]4)c(-c4cc[n+](C)cc4)c4nc(c(-c5ccccc5)c5ccc2[nH]5)C=C4)C=C3)cc1.[Cl-].[Cl-].[Cl-] [Sylsens, mono-phenyl-tri-(N-methyl-4-pyridyl)-porphyrin chloride]
- inactivation of bacteria, percentage remaining [1]: ≤ 0.001%
- inactivation of bacteria, percentage remaining [2]: ≤ 0.001%
- recovery (%) of red blood cells 24 h after re-infusion ([3]; Treated I: re-infused immediately after treatment): 75% and 102%
- recovery (%) of red blood cells 24 h after re-infusion ([3]; Treated II: re-infused after 5 weeks of storage after treatment): 71% and 72%
